Values after ≈ are worked out from the molar mass of the structure shown. Counter-ions that a name gives are not always drawn. Like-named read-outs stand apart in the source and are kept apart here.
Columns and labels:
[1] = system: C. freundii 1R523; experiment: MIC
[2] = system: E. cloacae 5D63-2; experiment: MIC
[3] = system: S. aureus Smith; experiment: MIC; settings: Staphylococcus aureus
[4] = in vivo; design: species or system Macaco; settings: monkey, 20 mg/kg
Description: Each of 20 mg/kg of the compounds obtained in Example 2, Example 25 and Example 28 was administered parenterally to Macaco and the half-time in blood was measured.
The concentrations of the compounds were measured according to HPLC method. Novapack C18 or Microbondapack C18 (trade name, produced by Waters Co.) was used as a column. Further, cefpiramide was used as a control drug.

[5] = system: E. colacae GN7471; experiment: MIC
[6] = system: P. cepacia OF189; experiment: MIC; settings: Burkholderia cepacia, OF189, P. cepacia OF189
[7] = system: E. coli ML4707; experiment: MIC; settings: Escherichia coli, ML4707, E. coli ML4707
[8] = system: E. cloacae 5D52-2; experiment: MIC
[9] = system: P. aeruginosa GN10362; experiment: MIC
[10] = system: E. cloacae 1Y247; experiment: MIC; assay type: cell-based
Description: (§1) The minimum inhibition concentrations (MIC) of the compounds obtained in the respective examples described above were measured according to the standard method of Japanese Chemotherapy Association.

[11] = system: C. freundii 1R524; experiment: MIC
[12] = system: P. aeruginosa 4au542; experiment: MIC; settings: Pseudomonas aeruginosa, 4AU542, P. aeruginosa 4au542
[13] = system: C. freundii 1U589; experiment: MIC
[14] = system: E. coli GN5482; experiment: MIC; settings: Escherichia coli, GN5482, E. coli GN5482
[15] = system: P. vulgaris GN7919; experiment: MIC
[16] = system: C. freundii 1R526; experiment: MIC
[17] = system: E. cloacae 1V25; experiment: MIC; settings: Enterobacter cloacae
[18] = system: P. aeruginosa 5D58-1; experiment: MIC; settings: Pseudomonas aeruginosa, 5D581, P. aeruginosa 5D58-1
[19] = system: C. freundii 5D60-1; experiment: MIC
[20] = system: S. marcescens GN10857; experiment: MIC; settings: Serratia marcescens, GN10857, S. marcescens GN10857
[21] = system: K. pneumoniae 4at521; experiment: MIC
[22] = system: C. freundii 1R527; experiment: MIC
[23] = system: P. maltophilia OF247; experiment: MIC; settings: Stenotrophomonas maltophilia
[24] = system: E. coli NIHJ JC-2; experiment: MIC; assay type: cell-based; settings: Escherichia coli, NIHJJC2, Table 2, sodium salt
Description: (§2) The minimum inhibition concentrations (MIC) of the compounds obtained in Example 1 and Example 2 were measured according to the standard method of Japanese Chemotherapy Association.

[25] = system: A. xylosoxidans OF1001; experiment: MIC; assay type: cell-based; settings: Achromobacter xylosoxidans, Table 2, sodium salt
Description: as §2

[26] = system: A. calcoaceticu OF1063; experiment: MIC; assay type: cell-based; settings: Table 2, sodium salt
Description: as §2

[27] = system: C. freundii GN7391; experiment: MIC; settings: Citrobacter freundii, GN7391, C. freundii GN7391
[28] = system: E. cloacae 908RN; experiment: MIC; settings: Enterobacter cloacae
[29] = system: C. freundii 1U692; experiment: MIC
[30] = system: S. aureus IAA498; experiment: MIC; assay type: cell-based; settings: Staphylococcus aureus, Table 5
Description: as §1

[31] = Pseudomonas aeruginosa, GN10362
[32] = Enterobacter cloacae, Table 3, sodium salt, read-out: MIC
[33] = E. cloacae 908RN, Table 3, sodium salt
[34] = E. colacae 908RN, Table 2, sodium salt

## Cc1cc(SCC2=C(C(=O)O)N3C(=O)C(NC(=O)C(=NOC(C)(C)C(=O)NNC(=O)c4ccc(O)c(O)c4)c4csc(N)n4)C3SC2)n2nc(C(=O)O)nc2n1 (centres unmarked) [Example 2]
[1]; Citrobacter freundii, 1R523
  MIC: 1.56 µg/mL (≈ 1.88 µM)
[2]; Enterobacter cloacae, 5D632
  MIC: 0.78 µg/mL (≈ 0.942 µM)
[3]; Table 2, sodium salt
  MIC: 6.25 µg/mL
[4]
  half-life: 5.3 h
[5]; Table 2, sodium salt
  MIC: 6.25 µg/mL
[6]; Table 2, sodium salt
  MIC: < 0.006 µg/mL
[7]; Table 2, sodium salt
  MIC: 0.01 µg/mL
[8]; Enterobacter cloacae, 5D522
  MIC: 0.2 µg/mL (≈ 0.242 µM)
[9]; [31]
  MIC: 0.2 µg/mL (≈ 0.242 µM)
[10]; [32]
  MIC: 6.25 µg/mL
[11]; Citrobacter freundii, 1R524
  MIC: 0.78 µg/mL (≈ 0.942 µM)
[12]; Table 2, sodium salt
  MIC: 0.2 µg/mL
[13]; Citrobacter freundii, 1U589
  MIC: 0.78 µg/mL (≈ 0.942 µM)
[14]; Table 2, sodium salt
  MIC: 0.1 µg/mL
[15]; Proteus vulgaris, GN7919
  MIC: 0.78 µg/mL (≈ 0.942 µM)
[16]; Citrobacter freundii, 1R526
  MIC: 0.78 µg/mL (≈ 0.942 µM)
[17]
  MIC: 6.25 µg/mL (≈ 7.55 µM)
[18]; Table 2, sodium salt
  MIC: 0.39 µg/mL
[19]; Citrobacter freundii, 5D601
  MIC: 1.56 µg/mL (≈ 1.88 µM)
[20]; Table 2, sodium salt
  MIC: 0.2 µg/mL
[21]; Klebsiella pneumoniae, 4AT521
  MIC: 0.012 µg/mL (≈ 0.0145 µM)
[22]; Citrobacter freundii, 1R527
  MIC: 0.78 µg/mL (≈ 0.942 µM)
[23]; Table 2, sodium salt
  MIC: 0.2 µg/mL
[24]
  MIC: 0.1 µg/mL
[25]
  MIC: 0.78 µg/mL
[26]
  MIC: 3.13 µg/mL
[27]; Table 2, sodium salt
  MIC: 12.5 µg/mL
[27]; Table 3, sodium salt
  MIC: 12.5 µg/mL
[28]; [33]
  MIC: 3.13 µg/mL
[28]; [34]
  MIC: 1.56 µg/mL
[29]; Citrobacter freundii, 1U692
  MIC: 1.56 µg/mL (≈ 1.88 µM)

## CC(C)(ON=C(C(=O)NC1C(=O)N2C(C(=O)O)=C(CSc3c4c(nc5c(C(=O)O)cnn35)CCC4)CSC12)c1csc(N)n1)C(=O)NNC(=O)c1ccc(O)c(O)c1 (centres unmarked) [Example 28, 7-{2-[2-Amino-1,3-thiazol-4-yl]-2-[1-(3-(3,4-dihydroxybenzoyl)carbazoyl)-1-methylethoxyimino]acetamide}-3-[(3-carboxy-6,7-dihydro-5H-cyclopenta[f]pyrazolo[1,5-a]pyrimidin-8-yl)thiomethyl]-3-cephem-4-carboxylic acid.hydrochloride]
[1]; Citrobacter freundii, 1R523
  MIC: 0.2 µg/mL
[2]; Enterobacter cloacae, 5D632
  MIC: 0.2 µg/mL
[3]; Table 5
  MIC: 12.5 µg/mL
[4]
  half-life: 4.7 h
[5]; Table 5
  MIC: 0.78 µg/mL
[6]; Table 5
  MIC: 0.012 µg/mL
[7]; Table 5
  MIC: 0.012 µg/mL
[8]; Enterobacter cloacae, 5D522
  MIC: 0.1 µg/mL
[9]; [31]
  MIC: 0.05 µg/mL
[30]
  MIC: 25 µg/mL
[10]; Enterobacter cloacae, Table 6, read-out: MIC
  MIC: 0.78 µg/mL
[11]; Citrobacter freundii, 1R524
  MIC: 0.1 µg/mL
[12]; Table 5
  MIC: 0.39 µg/mL
[13]; Citrobacter freundii, 1U589
  MIC: 0.39 µg/mL
[14]; Table 5
  MIC: < 0.006 µg/mL
[15]; Proteus vulgaris, GN7919
  MIC: 0.78 µg/mL
[16]; Citrobacter freundii, 1R526
  MIC: 0.1 µg/mL
[17]
  MIC: 0.2 µg/mL
[18]; Table 5
  MIC: 0.1 µg/mL
[19]; Citrobacter freundii, 5D601
  MIC: 12.5 µg/mL
[20]; Table 5
  MIC: 0.2 µg/mL
[21]; Klebsiella pneumoniae, 4AT521
  MIC: < 0.006 µg/mL
[22]; Citrobacter freundii, 1R527
  MIC: 0.1 µg/mL
[23]; Table 5
  MIC: 0.39 µg/mL
[27]; Table 5
  MIC: 0.78 µg/mL
[27]; Table 6
  MIC: 1.56 µg/mL
[28]; E. cloacae 908RN, Table 6
  MIC: 1.56 µg/mL
[28]; E. colacae 908RN, Table 5
  MIC: 0.78 µg/mL
[29]; Citrobacter freundii, 1U692
  MIC: 0.39 µg/mL

## Cc1cc(SCC2=C(C(=O)O)N3C(=O)C(NC(=O)C(=NOC(C)(C)C(=O)NNC(=O)c4ccc(O)c(O)c4)c4csc(N)n4)C3SC2)n2ncnc2n1 (centres unmarked) [Example 12, 7-{2-[2-Amino-1,3-thiazol-4-yl]-2-[1-(3-(3,4-dihydroxybenzoyl)carbazoyl)-1-methylethoxyimino]acetamide}-3-[(5-methyl-s-triazolo[1,5-a]-pyrimidin-7-yl)thiomethyl]-3-cephem-4-carboxylic acid.hydrochloride]
[1]; C. freundii 1R523, Table 6
  MIC: 0.78 µg/mL
[1]; Citrobacter freundii, 1R523
  MIC: 0.78 µg/mL
[2]; E. cloacae 5D63-2, Table 6
  MIC: 3.13 µg/mL
[2]; Enterobacter cloacae, 5D632
  MIC: 3.13 µg/mL
[3]; Table 2, sodium salt
  MIC: 0.78 µg/mL
[3]; Table 5
  MIC: 3.13 µg/mL
[5]; Table 2, sodium salt
  MIC: 3.13 µg/mL
[5]; Table 5
  MIC: 1.56 µg/mL
[6]; Table 2, sodium salt
  MIC: 0.025 µg/mL
[6]; Table 5
  MIC: 0.012 µg/mL
[7]; Table 2, sodium salt
  MIC: 0.012 µg/mL
[7]; Table 5
  MIC: < 0.006 µg/mL
[8]; E. cloacae 5D52-2, Table 6
  MIC: 0.2 µg/mL
[8]; Enterobacter cloacae, 5D522
  MIC: 0.2 µg/mL
[9]; P. aeruginosa GN10362, Table 5
  MIC: 0.1 µg/mL
[9]; [31]
  MIC: 0.1 µg/mL
[30]
  MIC: 6.25 µg/mL
[10]; [32]
  MIC: 25 µg/mL
[10]; Table 6
  MIC: 25 µg/mL
[11]; C. freundii 1R524, Table 6
  MIC: 0.78 µg/mL
[11]; Citrobacter freundii, 1R524
  MIC: 0.78 µg/mL
[12]; Table 2, sodium salt
  MIC: 0.1 µg/mL
[12]; Table 5
  MIC: 0.2 µg/mL
[13]; C. freundii 1U589, Table 6
  MIC: 1.56 µg/mL
[13]; Citrobacter freundii, 1U589
  MIC: 1.56 µg/mL
[14]; Table 2, sodium salt
  MIC: 0.1 µg/mL
[14]; Table 5
  MIC: 0.012 µg/mL
[15]; P. vulgaris Gn7919, Table 5
  MIC: 0.78 µg/mL
[15]; Proteus vulgaris, GN7919
  MIC: 0.78 µg/mL
[16]; C. freundii 1R526, Table 6
  MIC: 1.56 µg/mL
[16]; Citrobacter freundii, 1R526
  MIC: 1.56 µg/mL
[18]; Table 2, sodium salt
  MIC: 0.1 µg/mL
[18]; Table 5
  MIC: 0.2 µg/mL
[19]; C. freundii 5D60-1, Table 6
  MIC: 3.13 µg/mL
[19]; Citrobacter freundii, 5D601
  MIC: 3.13 µg/mL
[20]; Table 2, sodium salt
  MIC: 1.56 µg/mL
[20]; Table 5
  MIC: 0.39 µg/mL
[21]; K. pneumoniae 4at521, Table 5
  MIC: 0.012 µg/mL
[21]; Klebsiella pneumoniae, 4AT521
  MIC: 0.012 µg/mL
[22]; C. freundii 1R527, Table 6
  MIC: 0.78 µg/mL
[22]; Citrobacter freundii, 1R527
  MIC: 0.78 µg/mL
[23]; Table 2, sodium salt
  MIC: 0.78 µg/mL
[23]; Table 5
  MIC: 0.39 µg/mL
[24]
  MIC: 0.1 µg/mL
[25]
  MIC: 0.78 µg/mL
[26]
  MIC: 12.5 µg/mL
[27]; Table 2, sodium salt
  MIC: 12.5 µg/mL
[27]; Table 3, sodium salt
  MIC: 25 µg/mL
[27]; Table 5
  MIC: 6.25 µg/mL
[27]; Table 6
  MIC: 25 µg/mL
[28]; [33]
  MIC: 3.13 µg/mL
[28]; E. cloacae 908RN, Table 6
  MIC: 3.13 µg/mL
[28]; [34]
  MIC: 3.13 µg/mL
[28]; E. colacae 908RN, Table 5
  MIC: 3.13 µg/mL
[29]; C. freundii 1U692, Table 6
  MIC: 3.13 µg/mL
[29]; Citrobacter freundii, 1U692
  MIC: 3.13 µg/mL

Reference: patent US4966900A, “Cephalosporin β-lactam compound and medicinal composition” (priority 1986, dated 1990)
